Consider 1 compound from ChEMBL document CHEMBL1149790, “Synthesis of some novel thiourea derivatives obtained from 5-[(4-aminophenoxy)methyl]-4-alkyl/aryl-2,4-dihydro-3H-1,2,4-triazole-3-thiones and evaluation as antiviral/anti-HIV and anti-tuberculosis agents” (Eur J Med Chem, 2008).

The test deals with Mycobacterium tuberculosis. As to the kind of experiment: Antitubercular activity against Mycobacterium bovis BCG. It is filed as functional. The settings on record: variant bovis BCG.

The structures appear in SMILES notation. ≈ marks a conversion by molar mass, not a printed value.

As usually defined, the MIC is the lowest concentration that inhibits growth of the organism. Higher therefore signals a need for much substance.

The compound `CC(C)CCOc1ccc(NC(=S)Nc2ccc(OCCC(C)C)cc2)cc1` [TIOCARLIDE] gave a minimum inhibitory concentration (MIC) of 0.5 µg/mL (≈ 1.25 µM).
